In brackets after ≈: the same amount, converted by molar mass. Where only a bound is given, the exact number is not on record here.

The values that follow come from US7317020B2, “Isolation and structure of Cribrostatin 6” (Arizona Board of Regents, a body corporate of the State of …, priority 2003, dated 2008).

Test [1] relates to bacteria. The settings on record: in words; Pettit et al., J. Nat. Prod. 2000; cited from earlier work.
The test system of test [2] is fungi. The settings on record: in words; Pettit et al., J. Nat. Prod. 2000; cited from earlier work.
Test [3] deals with KM20L2. Put plainly: Cancer cell growth inhibition, human cancer cell line panel. The format is cell-based. As to conditions: KM-20L2, KM20L2, Colon-adenocarcinoma, read-out: Inhibitory Activity (GI50).
The subject of test [4] is MCF-7. The description is as above. In kind it is cell-based. The settings on record: MCF7, MCF-7, Breast-adenocarcinoma, read-out: Inhibitory Activity (GI50).
Test [5] concerns DU-145. Described as above. The format is cell-based. As to conditions: DU-145, Prostate, read-out: Inhibitory Activity (GI50).
The test system of test [6] is P388 lymphocytic leukemia. The experiment in a line: Cancer cell growth inhibition, murine P388 lymphocytic leukemia. In kind it is cell-based, mouse. An excerpt:
Earlier we had observed a number of biologically active blue to black colored fractions arising during P388 lymphocytic leukemia guided separations of a 195 g dichloromethane-soluble portion of the extract obtained from 350 kg (wet wt.) of Cribrochalina sp. The cancer cell growth (P-388) inhibitory dark-colored fractions were finally separated by a successive series of gel permeation and partition chromatographic techniques on Sephadex LH-20. That sequence was followed by high-speed countercurrent distribution using an Ito Coil-Planet centrifuge to afford 88 mg of a dark-blue constituent (P388 ED50 0.3 μg/ml), designated cribrostatin 6 (3). Owing to difficulties in unequivocally deducing the structure of this interesting substance based on spectral evidence, attempts were made at various times over a ten year period to reach a correct solution and/or to produce crystals suitable for X-ray structure determination. We were eventually pleased to find that cribrostatin 6 (3) would crystallize from acetone following long cold storage of the solution. To follow is a summary of the spectral and X-ray crystallographic interpretation that completed a correct structural assignment for cribrostatin 6 (3).
Isolation of Cribrostatin 6 (1). The blue marine sponge Cribrochalina sp. was collected and extracted as known to one of skill in the art, as described in Pettit, G., et al., J. Nat. Prod. […]

The test system of test [7] is SF-268. The experiment in a line: Cancer cell growth inhibition, human cancer cell line panel. The format is cell-based. The settings on record: SF-268, CNS Glioblastoma, read-out: Inhibitory Activity (GI50).
Test [8] deals with Cryptococcus neoformans (ATCC 90112). Put plainly: Broth microdilution susceptibility assay. The format is cell-based. The settings on record: ATCC90112, read-out: Minimum Inhibitory Concentration. The text has this:
(§1) Compounds were screened against bacteria and fungi according to established broth microdilution susceptibility assays, pursuant to the National Committee for Clinical Laboratory Standards, Methods for Dilution Antimicrobial Susceptibility Tests for Bacteria that Grow Aerobically, Approved Standard M7-A4, Wayne, Pa.: NCCLS, 1997, and the National Conmnittee for Clinical Laboratory Standards, Reference Method for Broth Dilution Antifungal Susceptibility Testing of Yeasts, Approved Standard M27-A, Wayne, Pa.: NCCLS, 1997. The minimum inhibitory concentration was defined as the lowest concentration of compound that inhibited all visible growth of the test organism (optically clear). Assays were repeated on separate days.

In test [9] the test system is Streptococcus pneumoniae (ATCC 6303). The experiment in a line: Broth microdilution susceptibility assay. The format is cell-based. As to conditions: ATCC6303, read-out: Minimum Inhibitory Concentration.
Source text: as §1
(Broth dilution looks for growth in wells or tubes with falling amounts of substance.)

For test [10], the system named is Micrococcus luteus (Presque Isle 456). The experiment in a line: Broth microdilution susceptibility assay. In kind it is cell-based. As to conditions: read-out: Minimum Inhibitory Concentration.
Source text: as §1

The test system of test [11] is Candida albicans (ATCC 90028). The experiment in a line: Broth microdilution susceptibility assay. The settings on record: ATCC90028, read-out: Minimum Inhibitory Concentration. In kind it is cell-based.
Source text: as §1

Test [12] concerns Staphylococcus aureus (ATCC 29213). Put plainly: Broth microdilution susceptibility assay. In kind it is cell-based. As to conditions: ATCC29213, read-out: Minimum Inhibitory Concentration.
Source text: as §1

Test [13] deals with Neisseria gonorrhoeae (ATCC 49226). Put plainly: Broth microdilution susceptibility assay. The settings on record: ATCC49226, read-out: Minimum Inhibitory Concentration. In kind it is cell-based.
Source text: as §1

Test [14] relates to Invasive S. pneumoniae (clinical isolate). Put plainly: Broth microdilution susceptibility assay. The format is cell-based. As to conditions: Streptococcus pneumoniae, read-out: Minimum Inhibitory Concentration.
Source text: as §1

The subject of test [15] is Group A Streptococcus (clinical isolate). Put plainly: Broth microdilution susceptibility assay. The format is cell-based. As to conditions: read-out: Minimum Inhibitory Concentration.
Source text: as §1

For test [16], the system named is Enterobacter cloacae (ATCC 13047). The experiment in a line: Broth microdilution susceptibility assay. In kind it is cell-based. The settings on record: ATCC13047, read-out: Minimum Inhibitory Concentration.
Source text: as §1

Test [17] relates to Methicillin-resistant S. aureus (clinical isolate). Put plainly: Broth microdilution susceptibility assay. The format is cell-based. As to conditions: Staphylococcus aureus, read-out: Minimum Inhibitory Concentration.
Source text: as §1

In test [18] the test system is Stenotrophomonas maltophilia (ATCC 13637). The experiment in a line: Broth microdilution susceptibility assay. The settings on record: ATCC13637, read-out: Minimum Inhibitory Concentration. In kind it is cell-based.
Source text: as §1

The subject of test [19] is Penicillin-resistant S. pneumoniae (clinical isolate). The experiment in a line: Broth microdilution susceptibility assay. The format is cell-based. As to conditions: Streptococcus pneumoniae, read-out: Minimum Inhibitory Concentration.
Source text: as §1

In test [20] the test system is Enterococcus faecalis (ATCC 29212). The experiment in a line: Broth microdilution susceptibility assay. In kind it is cell-based. As to conditions: ATCC29212, read-out: Minimum Inhibitory Concentration.
Source text: as §1

Test [21] has as its system Escherichia coli (ATCC 25922). Put plainly: Broth microdilution susceptibility assay. In kind it is cell-based. As to conditions: ATCC25922, read-out: Minimum Inhibitory Concentration.
Source text: as §1

For test [22], the system named is Vancomycin-resistant E. faecalis (clinical isolate). The experiment in a line: Broth microdilution susceptibility assay. In kind it is cell-based. The settings on record: Enterococcus faecalis, read-out: Minimum Inhibitory Concentration.
Source text: as §1

The subject of test [23] is Bacillus subtilis (clinical isolate). The experiment in a line: Broth microdilution susceptibility assay. In kind it is cell-based. As to conditions: read-out: Minimum Inhibitory Concentration.
Source text: as §1

Test [24] concerns BXPC-3. Put plainly: Cancer cell growth inhibition, human cancer cell line panel. In kind it is cell-based. The settings on record: BXPC-3, Pancreas-adenocarcinoma, read-out: Inhibitory Activity (GI50).
Test [25] has as its system NCI-H460. The test is described as above. In kind it is cell-based. The settings on record: NCI-H460, Lung-NSC, read-out: Inhibitory Activity (GI50).

`CC1=C(N)C(=O)c2c(ccnc2C)C1=O` [Cribrostatin 1]: the antibacterial activity result in test [1] is “antibacterial”. The antifungal activity entry in test [2] was “not antifungal”.

For the compound `C/C=C(/C)C(=O)OCc1nccc2c1C(=O)C(N)=C(C)C2=O` [Cribrostatin 3], the antibacterial activity entry in [1] is recorded as “antibacterial”. In [2], the antifungal activity entry is “not antifungal”.

For `CCOC1=C(C)C(=O)c2ccn3c(C)ncc3c2C1=O` [Cribrostatin 6, 9-ethoxy-3,8-dimethyl-imidazo[5,1-a]isoquinoline-7, 10-dione], the GI50 in test [3] is over 1 µg/mL; in test [4] it was 0.21 µg/mL (≈ 0.777 µM); in test [5], 0.38 µg/mL (≈ 1.41 µM); in test [6] (P388, Mouse Leukemia, read-out: Inhibitory Activity (GI50)), 0.29 µg/mL (≈ 1.07 µM); in test [7] it was 0.24 µg/mL (≈ 0.888 µM); in test [24] it was over 1 µg/mL. In [25], the GI50 was over 1 µg/mL. Moreover, the “P388 ED50” value in test [6] (murine P-388 lymphocytic leukemia cell line) is 0.3 µg/mL. Besides, the MIC in test [8] was 2 µg/mL (≈ 7.4 µM); in [9], 0.5 µg/mL (≈ 1.85 µM); in test [10], 16 µg/mL (≈ 59.2 µM); in test [11] it was 64 µg/mL (≈ 237 µM); in test [12], 16 µg/mL (≈ 59.2 µM); in test [13], 0.0625 µg/mL (≈ 0.231 µM). Further, the MIC in [14] is 1 µg/mL (≈ 3.7 µM); in test [15], 16 µg/mL (≈ 59.2 µM); in [16] it was over 64 µg/mL; in test [17] it was 16 µg/mL (≈ 59.2 µM); in [18] it was over 64 µg/mL; in test [19], 2 µg/mL (≈ 7.4 µM). Also, the MIC in [20] is 32 µg/mL (≈ 118 µM); in [21], over 64 µg/mL; in test [22], 32 µg/mL (≈ 118 µM); in test [23] it was 2 µg/mL (≈ 7.4 µM).

A word on the GI50: it is the concentration at which growth is held to half of that of the control.
